Patent publication US8906909B2 (Curis, Inc., priority 2009, dated 2014)

How the values were obtained:
[1] = system: HDACs (HeLa cell nuclear extracts); test: HDAC enzymatic activity, Biomol Color de Lys system; type: biochemical
Procedure, shortened: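 HeLa nuclear extract as HDAC source with Color de Lys substrate in 50 mM Tris/Cl pH 8.0, 137 mM NaCl, 2.7 mM KCl, 1 mM MgCl2. Serially diluted compounds reacted 1 h at 25 °C, then developer added; fluorescence (Ex 350–380/Em 440–460) fitted sigmoidally for IC50.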

| SMILES | IC50 [1] [µM] | melting point |
| --- | --- | --- |
| CN(Cc1cc2nc(-c3cccc4[nH]ncc34)nc(Nc3ccccc3)c2s1)c1ncc(C(=O)NO)cn1 [Compound 164, 2-(((2-(1H-indazol-4-yl)-4-(phenylamino)thieno[3,2-d]pyrimidin-6-yl)methyl)(methyl)amino)-N-hydroxypyrimidine-5-carboxamide] | < 0.1 | 232 to 235 °C |
| CN(Cc1cc2nc(-c3cccc4[nH]ncc34)nc(Nc3ccccn3)c2s1)c1ncc(C(=O)NO)cn1 [Compound 168, 2-(((2-(1H-indazol-4-yl)-4-(pyridin-2-ylamino)thieno[3,2-d]pyrimidin-6-yl)methyl)(methyl)amino)-N-hydroxypyrimidine-5-carboxamide] | < 0.1 | 200 to 203 °C |
| CN(Cc1cc2nc(-c3cccc4[nH]ccc34)nc(N3CCOCC3)c2s1)c1ncc(C(=O)NO)cn1 [Compound 176, 2-(((2-(1H-indol-4-yl)-4-morpholinothieno[3,2-d]pyrimidin-6-yl)methyl)(methyl)amino)-N-hydroxypyrimidine-5-carboxamide] | < 0.1 | 200 to 212 °C |
| CN(Cc1cc2nc(-c3cccc4c3CCN4)nc(N3CCOCC3)c2s1)c1ncc(C(=O)NO)cn1 [Compound 177, N-hydroxy-2-(((2-(indolin-4-yl)-4-morpholinothieno[3,2-d]pyrimidin-6-yl)methyl)(methyl)amino)pyrimidine-5-carboxamide] | < 0.1 | 146 to 156 °C |
| CN(Cc1cc2nc(-c3ccc4c(c3)NCCO4)nc(N3CCOCC3)c2s1)c1ncc(C(=O)NO)cn1 [Compound 182, 2-(((2-(3,4-dihydro-2H-benzo[b][1,4]oxazin-6-yl)-4-morpholinothieno[3,2-d]pyrimidin-6-yl)methyl)(methyl)amino)-N-hydroxypyrimidine-5-carboxamide] | < 0.1 | 170 to 183 °C |
| CN(Cc1cc2nc(-c3ccc4[nH]c(=O)[nH]c4c3)nc(N3CCOCC3)c2s1)c1ncc(C(=O)NO)cn1 [Compound 186, N-hydroxy-2-(methyl((4-morpholino-2-(2-oxo-2,3-dihydro-1H-benzo[d]imidazol-5-yl)thieno[3,2-d]pyrimidin-6-yl)methyl)amino)pyrimidine-5-carboxamide] | < 0.1 | 272 to 275 °C |
| CN(Cc1cc2nc(-c3ccc4[nH]cnc4c3)nc(N3CCOCC3)c2s1)c1ncc(C(=O)NO)cn1 [Compound 187, 2-(((2-(1H-benzo[d]imidazol-5-yl)-4-morpholinothieno[3,2-d]pyrimidin-6-yl)methyl)(methyl)amino)-N-hydroxypyrimidine-5-carboxamide] | < 0.1 | 231 to 239 °C |
| CN(Cc1cc2nc(-c3ccc4c(c3)CC(=O)N4)nc(N3CCOCC3)c2s1)c1ncc(C(=O)NO)cn1 [Compound 194, N-hydroxy-2-(methyl((4-morpholino-2-(2-oxoindolin-5-yl)thieno[3,2-d]pyrimidin-6-yl)methyl)amino)pyrimidine-5-carboxamide] | < 0.1 | 270 °C (dec.) |
| CN(Cc1cc2nc(-c3cn[nH]c3)nc(N3CCOCC3)c2s1)c1ncc(C(=O)NO)cn1 [Compound 196, N-hydroxy-2-(methyl((4-morpholino-2-(1H-pyrazol-4-yl)thieno[3,2-d]pyrimidin-6-yl)methyl)amino)pyrimidine-5-carboxamide] | < 0.1 | 214 to 217 °C |
| CN(Cc1cc2nc(-c3cc[nH]c3)nc(N3CCOCC3)c2s1)c1ncc(C(=O)NO)cn1 [Compound 197, N-hydroxy-2-(methyl((4-morpholino-2-(1H-pyrrol-3-yl)thieno[3,2-d]pyrimidin-6-yl)methyl)amino)pyrimidine-5-carboxamide] | < 0.1 | 175 to 189 °C |
